According to patent EP0463492A1, “2,6-Diarylpyridin derivatives” (BAYER AG, priority 1990, dated 1992):

System: Testpflanzen
Test: Post-emergence test (greenhouse)
Format: in vivo
Settings: post-emergence spray on test plants 5 - 15 cm high, 1000 l Wasser/ha; rated after three weeks as % Schädigung versus untreated control (0 % = keine Wirkung, 100 % = totale Vernichtung); application rates and plant species not given
Excerpt: Post-emergence-Test (Gewächshaus) • Lösungsmittel: 5 Gewichtsteile Aceton • Emulgator: 1 Gewichtsteil Alkylarylpolyglykolether
Zur Herstellung einer zweckmäßigen Wirkstoffzubereitung vermischt man 1 Gewichtsteil Wirkstoff mit den angegebenen Menge Lösungsmittel, gibt die angegebene Menge Emulgator zu und verdünnt das Konzentrat mit Wasser auf die gewünschte Konzentration.
Mit der Wirkstoffzubereitung spritzt man Testpflanzen, welche eine Höhe von 5 - 15 cm haben so, daß die jeweils gewünschten Wirkstoffmengen pro Flächeneinheit ausgebracht werden. Die Konzentration der Spritzbrühe wird so gewählt, daß in 1000 I Wasser/ha die jeweils gewünschten Wirkstoffmengen ausgebracht werden. Nach drei Wochen wird der Schädigungsgrad der Pflanzen bonitiert in % Schädigung im Vergleich zur Entwicklung der unbehandelten Kontrolle.
Es bedeuten: • 0 % = keine Wirkung (wie unbehandelte Kontrolle) • 100 % = totale Vernichtung

Q: How did the “Wirksamkeit und Nutzpflanzenselektivität” value turn out when CCOc1cc(-c2ccccc2)nc(-c2cccc(CC)c2)c1 [Beispiel 2, 4-Ethoxy-2-(3-ethylphenyl)-6-phenyl-pyridin] was run?
A: sehr gute Wirksamkeit und Nutzpflanzenselektivität
